Reference: US6337336B1, “Azaindole derivatives for the treatment of depression” (American Home Products Corporation, priority 1999, dated 2002)
Where a name gives a salt, the structure may show the parent alone.

What was measured:
serotonin transporter = molecular target: T1, serotonin transporter (Rattus norvegicus, UniProt P31652); experiment: serotonin transporter affinity, 3H-paroxetine binding in rat frontal cortical membranes; conditions: 3H-paroxetine 0.1 nM, read-out: ST (Ki)
T1 construct: frontal cortical membranes prepared from male Sprague-Dawley rats; from tissue; host or cells: rat frontal cortex membranes (male Sprague-Dawley)
Description: A protocol similar to that used by Cheetham et al., Neuropharmacol., 32:737 (1993) was used to determine the affinity of compounds for the serotonin transporter. Briefly, frontal cortical membranes prepared from male Sprague-Dawley rats were incubated with ^3H-paroxetine (0.1 nM) for 60 min at 25° C. All tubes also contained either vehicle, test compound (one to eight concentrations), or a saturating concentration of fluoxetine (10 μM) to define […]. All reactions were terminated by the addition of ice cold Tris buffer followed by rapid filtration using a Tom Tech filtration device to separate bound from free ^3H-paroxetine. Bound radioactivity was quantitated using a Wallac 1205 Beta Plate® counter. Nonlinear regression analysis was used to determine IC50 values which were converted to Ki values using the method set forth in Cheng and Prusoff, Biochem. Pharmacol., 22:3099 (1973) (Ki=IC50/((Radioligand conc.)/(1+KD)).

5-HT1A cloned receptor = molecular target: T2, 5-HT1A cloned receptor (Homo sapiens, UniProt P08908); experiment: [35S]-GTPγS binding assay; format: biochemical; conditions: relative to maximum agonist response defined by excess 8-OH-DPAT
T2 construct: expressed in transfected cells
T2 sequence (P08908 1-422): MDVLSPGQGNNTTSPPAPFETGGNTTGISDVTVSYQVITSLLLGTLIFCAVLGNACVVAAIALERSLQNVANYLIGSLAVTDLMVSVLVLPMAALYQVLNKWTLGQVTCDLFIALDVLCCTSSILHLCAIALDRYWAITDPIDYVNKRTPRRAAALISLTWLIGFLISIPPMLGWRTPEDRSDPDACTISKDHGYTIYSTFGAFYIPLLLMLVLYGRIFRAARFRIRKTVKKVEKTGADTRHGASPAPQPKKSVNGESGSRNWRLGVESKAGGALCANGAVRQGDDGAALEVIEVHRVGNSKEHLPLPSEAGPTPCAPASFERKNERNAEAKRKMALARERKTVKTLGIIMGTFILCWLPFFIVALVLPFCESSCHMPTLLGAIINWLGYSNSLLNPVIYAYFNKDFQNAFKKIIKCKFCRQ
Description: The [^35S]-GTPγS binding assay was similar to that used by Lazareno and Birdsall, Br. J. Pharmacol. 109:1120 (1993). Briefly, 5-HT1A cloned receptor membrane fragments (as used for 5-HT1A receptor binding assays) were stored at −70° C. When needed, membranes were rapidly thawed, centrifuged at 40,000×g for 10 minutes and resuspended at 4° C. for 10 minutes in assay buffer (25 mM HEPES, 3 mM MgCl2, 100 mM NaCl, 1 mM EDTA, 10 uM GDP, […], pH 8.0). These membranes were then incubated for 30 min at 30° C. with [^35S]GTPgS (1 nM) in the presence of vehicle, test compound (one to eight concentrations), or excess 8-OH-DPAT to define maximum agonist response. All reactions were terminated by the addition of ice cold Tris buffer followed by rapid filtration using a Tom Tech® filtration device to separate bound from free [^35S]GTPgS. Agonists produced an increase in the amount of [^35S]GTPgS bound whereas antagonists produced no increase in binding. Bound radioactivity was counted and analyzed as above.

human 5-HT1A receptor [1] = molecular target: T3, human 5-HT1A receptor (Homo sapiens, UniProt P08908); experiment: human 5-HT1A receptor binding with [3H]8-OH-DPAT in CHO cell membranes
T3 sequence (P08908 1-422): T2 sequence (P08908 1-422)
Description: A stable Chinese hamster ovary cell line expressing the human 5-HT1A receptor subtype (5-HT1A.CHO cells) was employed throughout this study. Cells were maintained in DMEM supplemented with 10% fetal calf serum, non-essential amino acids and penicillin/ streptomycin.
Cells were grown to 95-100% confluency as a monolayer before membranes were harvested for binding studies. Cells were gently scraped from the culture plates, transferred to centrifuge tubes, and washed twice by centrifugation (2000 rpm for 10 min., 4° C.) in buffer (50 mM Tris; pH 7.5). The resulting pellets were aliquoted and maintained at −80° C. On the day of assay, the cells were thawed on ice, and resuspended in buffer. Studies were conducted using [^3H]8-OH-DPAT as the radioligand. The binding assay was performed in 96 well microtiter plates in a final total volume of 250 μL of buffer. Comparison experiments were performed by using 7 concentrations of unlabelled drug and a final ligand concentration of 1.5 nM. Non-specific binding was determined in the presence of 10 μM 5HT. Saturation analysis was conducted by using [^3H]8-OH-DPAT at concentrations ranging from 0.3-30 nM. Following a 30 minute incubation at room temperature, the reaction was terminated by the addition of ice cold buffer and rapid filtration using a M-96 Brandel Cell Harvester (Gaithersburg, MD) through a GF/B filter presoaked for 30 minutes in 0.5% polyethyleneimine.

human 5-HT1A receptor [2] = molecular target: T3, human 5-HT1A receptor; experiment: forskolin-stimulated cAMP formation in 5-HT1A.CHO cells (cAMP SPA assay); format: cell-based; parameters: expressed in transfected cells; conditions: forskolin 1 uM
Description: The following assays were performed by incubating the cells with DMEM containing 25 mM HEPES, 5 mM theophylline and 10 μM pargyline for a period of 20 minutes at 37° C. Functional activity was assessed by treating the cells with forskolin (1 uM final concentration) followed immediately by test compound (6 concentrations) for an additional 10 min at 37° C. In separate experiments, 6 concentrations of antagonist were preincubated for 20 min prior to the addition of 10 nM 8-OH-DPAT and forskolin. The reaction was terminated by removal of the media and addition of 0.5 ml ice cold assay buffer. Plates were stored at −20° C. prior to assessment of cAMP formation by a cAMP SPA assay (Amersham).

T1 sequence (P31652 whole entry): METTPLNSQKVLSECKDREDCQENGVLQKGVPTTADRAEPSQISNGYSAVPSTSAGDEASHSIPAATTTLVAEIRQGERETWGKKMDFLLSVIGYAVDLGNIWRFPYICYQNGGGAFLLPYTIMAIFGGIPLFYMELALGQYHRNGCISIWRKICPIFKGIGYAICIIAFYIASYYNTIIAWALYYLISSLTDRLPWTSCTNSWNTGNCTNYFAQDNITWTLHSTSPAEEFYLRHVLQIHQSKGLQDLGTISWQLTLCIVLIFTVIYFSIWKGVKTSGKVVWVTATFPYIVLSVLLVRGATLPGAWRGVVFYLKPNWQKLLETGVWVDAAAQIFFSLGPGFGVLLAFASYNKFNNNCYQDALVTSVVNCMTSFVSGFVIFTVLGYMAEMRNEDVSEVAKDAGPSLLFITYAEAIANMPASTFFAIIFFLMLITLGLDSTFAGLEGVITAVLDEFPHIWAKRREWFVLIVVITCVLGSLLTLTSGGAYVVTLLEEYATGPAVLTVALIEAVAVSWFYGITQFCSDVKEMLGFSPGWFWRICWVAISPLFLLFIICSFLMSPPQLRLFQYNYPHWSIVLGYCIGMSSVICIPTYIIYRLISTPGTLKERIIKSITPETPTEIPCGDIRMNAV

Row | SMILES | melting point [°C] | Ki (serotonin transporter) [nM] | Emax (5-HT1A cloned receptor) [%] | Ki (human 5-HT1A receptor [1]) [nM] | Emax (human 5-HT1A receptor [2]) [%]
1 | C1=C(c2c[nH]c3ncccc23)CCN(CCOc2cccc3[nH]ccc23)C1 (as salt: oxalate) [Example 2, 3-{1-[2-(1H-Indol-4-yloxy)-ethyl]-1,2,3,6-tetrahydro-pyridin-4-yl}-1H-pyrrolo[2,3-b]pyridine] | 106 to 109 | – | – | – | –
2 | C1=C(c2c[nH]c3ncccc23)CCN(CCOc2cccc3ncccc23)C1 (as salt: oxalate) [Example 3, 5-{2-[4-(1H-Pyrrolo[2,3-b]pyridin-3-yl)-3,6-dihydro-2H-pyridin-1-yl]-ethoxy}-quinoline] | 202 to 205 | – | – | – | –
3 | C1=C(c2c[nH]c3ncccc23)CCN(CCOc2cccc3c2OCCO3)C1 [Example 1, 3-{1-[2-(2,3-Dihydro-benzo[1,4]dioxin-5-yloxy)-ethyl]-1,2,3,6-tetrahydro-pyridin-4-yl}-1H-pyrrolo[2,3-b]pyridine] | – | 18 | 30 | 43.9 | –
4 | C1=C(c2c[nH]c3ncccc23)CCN(CCOc2cccc3c2OCCO3)C1 (as salt: oxalate) [Example 1, 3-{1-[2-(2,3-Dihydro-benzo[1,4]dioxin-5-yloxy)-ethyl]-1,2,3,6-tetrahydro-pyridin-4-yl}-1H-pyrrolo[2,3-b]pyridine] | 164 to 167 | – | – | – | –
5 | C1=C(c2c[nH]c3ncccc23)CCN(CCOc2cccc3[nH]ccc23)C1 [Example 2, 3-{1-[2-(1H-Indol-4-yloxy)-ethyl]-1,2,3,6-tetrahydro-pyridin-4-yl}-1H-pyrrolo[2,3-b]pyridine] | – | 1.46 | 9 | 10.9 | 0
6 | C1=C(c2c[nH]c3ncccc23)CCN(CCOc2cccc3ncccc23)C1 [Example 3, 5-{2-[4-(1H-Pyrrolo[2,3-b]pyridin-3-yl)-3,6-dihydro-2H-pyridin-1-yl]-ethoxy}-quinoline] | – | 6.89 | 0 | 71.6 | 0
